Reference: paper PMC12504763, “Antiproliferation, 3D-multicellular spheroid and VEGFR-2 inhibitory properties of spiroindolin-2-ones with phosphonate function” (Scientific Reports, 2025)
Where two headings read alike, the source gives them in different places.

Legend:
[1] = test system: HCT116 (colon) cancer cell line; experiment: 2D-monolayer antiproliferation (MTT) against HCT116; format: cell-based, human; settings: for IC50: Homo sapiens, HCT-116; for SI (selectivity index) HCT116: IC50 of RPE1 normal cell/IC50 of HCT116
[2] = test system: PaCa2 (pancreatic) cancer cell line; experiment: 2D-monolayer antiproliferation (MTT) against PaCa2; format: cell-based, human; settings: for 1/(observed property): 1/observed IC50 (μM), PaCa2; for IC50: Homo sapiens, PaCa-2, MTT, 72 h incubation, PaCa2 pancreatic, read-out: IC50, μM ± SEM PaCa2; for SI (selectivity index) PaCa2: IC50 of RPE1 normal cell/IC50 of PaCa2
[3] = test system: MCF7 (breast) cancer cell line; experiment: 2D-monolayer antiproliferation (MTT) against MCF7; format: cell-based, human; settings: for IC50: Homo sapiens, MTT, 72 h incubation, MCF7 breast, read-out: IC50, μM ± SEM MCF7; for SI (selectivity index) MCF7: IC50 of RPE1 normal cell/IC50 of MCF7
[4] = test system: A549 (lung) cancer cell line; experiment: 2D-monolayer antiproliferation (MTT) against A549; format: cell-based, human; settings: for IC50: Homo sapiens, MTT, 72 h incubation, A549 lung, read-out: IC50, μM ± SEM A549; for SI (selectivity index) A549: IC50 of RPE1 normal cell/IC50 of A549
[5] = test system: RPE1 (normal human immortalized retinal pigment epithelial cell line); experiment: cells; format: cell-based; settings: for IC50: Homo sapiens, RPE-1, MTT, normal RPE1 cell, read-out: IC50, μM ± SEM RPE1
[6] = biological target: T1, VEGFR-2 (Homo sapiens, UniProt P35968); experiment: cell-based; format: cell-based; settings: for inhibition at 10 µM: HCT-116, HCT116; for VEGFR-2 pg/mL ± SEM HCT116: at 10 μM, control 317.80 ± 3.5
T1 construct: endogenous in cells; host or cells: HCT116, PaCa2, MCF7 (human cancer cell lines, ATCC origin)
T1 sequence (P35968 20-1356): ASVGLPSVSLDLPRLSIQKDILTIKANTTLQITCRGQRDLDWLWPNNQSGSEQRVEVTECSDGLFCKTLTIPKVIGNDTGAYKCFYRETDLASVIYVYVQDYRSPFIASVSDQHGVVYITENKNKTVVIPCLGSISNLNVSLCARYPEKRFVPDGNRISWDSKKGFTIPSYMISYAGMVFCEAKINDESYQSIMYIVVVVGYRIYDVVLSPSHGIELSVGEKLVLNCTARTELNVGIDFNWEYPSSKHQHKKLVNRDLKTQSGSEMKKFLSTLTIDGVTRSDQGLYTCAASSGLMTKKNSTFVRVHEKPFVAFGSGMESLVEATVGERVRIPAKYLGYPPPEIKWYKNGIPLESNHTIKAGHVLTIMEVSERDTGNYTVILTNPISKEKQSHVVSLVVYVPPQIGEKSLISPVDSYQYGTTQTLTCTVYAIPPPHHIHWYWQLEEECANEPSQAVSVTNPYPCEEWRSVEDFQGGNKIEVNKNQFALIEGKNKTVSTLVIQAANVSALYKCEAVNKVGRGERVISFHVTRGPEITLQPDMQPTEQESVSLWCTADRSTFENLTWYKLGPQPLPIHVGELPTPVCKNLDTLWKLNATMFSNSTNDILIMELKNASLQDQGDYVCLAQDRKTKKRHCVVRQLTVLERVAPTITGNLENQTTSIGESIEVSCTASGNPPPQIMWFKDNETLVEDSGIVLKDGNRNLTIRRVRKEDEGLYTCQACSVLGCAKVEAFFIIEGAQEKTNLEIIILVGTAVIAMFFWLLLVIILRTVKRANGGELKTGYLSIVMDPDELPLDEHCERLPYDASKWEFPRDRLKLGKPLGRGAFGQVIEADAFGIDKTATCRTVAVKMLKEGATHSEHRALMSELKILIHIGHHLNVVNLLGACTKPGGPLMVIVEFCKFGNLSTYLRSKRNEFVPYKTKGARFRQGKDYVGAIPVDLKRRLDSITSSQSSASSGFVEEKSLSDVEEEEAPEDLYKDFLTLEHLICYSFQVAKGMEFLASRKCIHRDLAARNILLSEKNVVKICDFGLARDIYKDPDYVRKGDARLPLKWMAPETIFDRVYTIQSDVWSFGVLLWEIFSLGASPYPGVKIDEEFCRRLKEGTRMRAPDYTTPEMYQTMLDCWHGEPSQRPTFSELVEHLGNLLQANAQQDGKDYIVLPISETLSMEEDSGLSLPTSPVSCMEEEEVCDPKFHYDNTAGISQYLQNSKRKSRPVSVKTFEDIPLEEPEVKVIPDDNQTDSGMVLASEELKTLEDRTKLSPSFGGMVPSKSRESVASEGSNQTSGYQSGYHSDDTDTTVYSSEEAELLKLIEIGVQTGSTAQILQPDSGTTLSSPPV

[7] = biological target: T1, VEGFR-2; experiment: cell-based; format: cell-based; settings: for inhibition at 10 µM: PaCa-2, PaCa2; for VEGFR-2 pg/mL ± SEM PaCa2: at 10 μM, control 326.80 ± 1.9
[8] = biological target: T1, VEGFR-2; experiment: cell-based; format: cell-based; settings: for inhibition at 10 µM: MCF7; for VEGFR-2 pg/mL ± SEM MCF7: at 10 μM, control 258.70 ± 2.3
[9] = biological target: T2, COX-1 (Ovis aries, UniProt P05979); experiment: biochemical; settings: 3 replicates, read-out: % Inhibition of COX-1 ± SEM
T2 construct: purchased BioVision incorporated USA K548–100
T2 sequence (P05979 25-600): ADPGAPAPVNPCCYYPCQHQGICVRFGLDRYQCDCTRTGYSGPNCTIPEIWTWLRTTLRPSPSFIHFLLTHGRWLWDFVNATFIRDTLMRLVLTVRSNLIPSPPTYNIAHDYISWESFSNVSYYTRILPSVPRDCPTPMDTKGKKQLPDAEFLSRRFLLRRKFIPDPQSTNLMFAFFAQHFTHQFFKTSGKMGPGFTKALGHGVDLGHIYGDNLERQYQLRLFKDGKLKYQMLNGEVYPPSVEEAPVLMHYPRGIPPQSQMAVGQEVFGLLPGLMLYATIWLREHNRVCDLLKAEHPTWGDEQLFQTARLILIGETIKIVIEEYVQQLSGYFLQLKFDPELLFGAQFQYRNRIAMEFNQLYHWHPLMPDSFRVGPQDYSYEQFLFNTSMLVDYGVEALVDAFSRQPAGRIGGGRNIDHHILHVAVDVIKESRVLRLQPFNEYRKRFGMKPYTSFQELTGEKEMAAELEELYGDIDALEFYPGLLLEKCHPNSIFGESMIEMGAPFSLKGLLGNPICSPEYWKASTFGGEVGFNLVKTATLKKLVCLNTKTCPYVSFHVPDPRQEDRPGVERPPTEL

[10] = biological target: T3, COX-2 (Homo sapiens, UniProt P35354); experiment: biochemical; settings: for inhibition at 10 µM: 3 replicates, read-out: % Inhibition of COX-2 ± SEM; for SI (selectivity index, COX-2/COX-1): at 10 μM
T3 construct: purchased BioVision incorporated USA K548–100
T3 sequence (P35354 18-604): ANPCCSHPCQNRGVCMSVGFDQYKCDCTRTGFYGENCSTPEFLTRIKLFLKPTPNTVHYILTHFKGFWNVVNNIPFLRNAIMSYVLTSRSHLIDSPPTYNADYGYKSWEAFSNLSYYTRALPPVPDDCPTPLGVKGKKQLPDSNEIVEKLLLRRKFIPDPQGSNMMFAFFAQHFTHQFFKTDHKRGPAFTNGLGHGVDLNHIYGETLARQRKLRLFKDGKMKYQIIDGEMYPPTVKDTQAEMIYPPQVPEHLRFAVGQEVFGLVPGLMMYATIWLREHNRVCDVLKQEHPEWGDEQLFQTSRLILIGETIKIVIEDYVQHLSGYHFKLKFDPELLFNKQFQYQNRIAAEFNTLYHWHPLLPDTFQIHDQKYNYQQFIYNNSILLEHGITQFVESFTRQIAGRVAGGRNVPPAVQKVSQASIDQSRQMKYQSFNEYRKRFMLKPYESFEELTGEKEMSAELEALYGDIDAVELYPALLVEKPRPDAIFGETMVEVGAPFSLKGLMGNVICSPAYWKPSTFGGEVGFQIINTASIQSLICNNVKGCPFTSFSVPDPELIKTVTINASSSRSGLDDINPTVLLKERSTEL

[11] = test system: TNF-α; experiment: TNF-α inhibitory properties (ELISA), HCT116 cell lysate; format: cell-based, human; settings: at 10 μM; for TNF-α pg/mL (± SEM) HCT116: control 95.74 ± 0.5
[12] = test system: TNF-α; experiment: TNF-α inhibitory properties (ELISA), PaCa2 cell lysate; format: cell-based, human; settings: at 10 μM; for TNF-α pg/mL (± SEM) PaCa2: control 111.8 ± 2.0
[13] = test system: TNF-α; experiment: TNF-α inhibitory properties (ELISA), MCF7 cell lysate; format: cell-based, human; settings: at 10 μM; for TNF-α pg/mL (± SEM) MCF7: control 83.26 ± 1.1
[14] = MTT, 72 h incubation, HCT116 colon, read-out: IC50, μM ± SEM HCT116
[15] = log of observed IC50 (μM), HCT116, read-out: Log(observed property) (converted)

Row | Structure (SMILES) | IC50 [1, 14] [µM] | IC50 [1, 15] [µM] | SI (selectivity index) HCT116 [1] | 1/(observed property) [2] | IC50 [2] [µM] | SI (selectivity index) PaCa2 [2] | IC50 [3] [µM] | SI (selectivity index) MCF7 [3] | IC50 [4] [µM] | SI (selectivity index) A549 [4] | IC50 [5] [µM] | inhibition at 10 µM [6] [%] | VEGFR-2 pg/mL ± SEM HCT116 [6] [pg/mL] | inhibition at 10 µM [7] [%] | VEGFR-2 pg/mL ± SEM PaCa2 [7] [pg/mL] | inhibition at 10 µM [8] [%] | VEGFR-2 pg/mL ± SEM MCF7 [8] [pg/mL] | inhibition at 10 µM [9] [%] | inhibition at 10 µM [10] [%] | SI (selectivity index, COX-2/COX-1) [10] | also measured
1 | CCOP(=O)(OCC)N1C/C(=C\c2ccc(C)cc2)C(=O)C2(C1)C(c1ccc(C)cc1)CN(C)C21C(=O)Nc2ccc(Cl)cc21 (stereo not drawn) [Compound 17o, Diethyl (E)-[5-chloro-1′-methyl-5′′-(4-methylbenzylidene)-2,4′′-dioxo-4′-(p-tolyl)dispiro[indoline-3,2′-pyrrolidine-3′,3′′-piperidin]-1′′-yl]phosphonate] | 3.76 ± 0.064 | 3.76 | > 13.3 | 0.1594 | 6.27 ± 0.148 | > 8.0 | 4.67 ± 0.086 | > 10.7 | 36 ± 1.15 | > 1.3 | > 50 | 84.8 | 48.40 ± 0.6 | 90.3 | 31.64 ± 1.9 | 85 | 38.70 ± 0.4 | 61.7 ± 3.4 | 59.3 ± 2.4 | 1.14 | selectivity index (SI) ([5]; IC50 against RPE1 compared to the tested cancer cell line(s), in words): high selectivity index; TNF-α % inhibition HCT116 [11]: 9.8%; TNF-α pg/mL (± SEM) HCT116 [11]: 86.34 ± 0.9 pg/mL; TNF-α % inhibition PaCa2 [12]: 14.5%; TNF-α pg/mL (± SEM) PaCa2 [12]: 95.6 ± 2.2 pg/mL; TNF-α % inhibition MCF7 [13]: 1.7%; TNF-α pg/mL (± SEM) MCF7 [13]: 81.85 ± 3.1 pg/mL
2 | CCOP(=O)(OCC)N1C/C(=C\c2cccs2)C(=O)C2(C1)C(c1cccs1)CN(C)C21C(=O)Nc2ccccc21 (stereo not drawn) [Compound 17q, Diethyl (E)-[1′-methyl-2,4′′-dioxo-4′-(thiophen-2-yl)-5′′-(thiophen-2-ylmethylene)dispiro[indoline-3,2′-pyrrolidine-3′,3′′-piperidin]-1′′-yl]phosphonate] | 11.8 ± 0.4 | 11.8 | 2.3 | 0.07485 | 13.4 ± 0.325 | 2.0 | 9.13 ± 0.314 | 3.0 | 24.51 ± 0.204 | 1.1 | 27.2 ± 0.813 | 58.4 | 132.30 ± 0.9 | 58.5 | 135.70 ± 1.7 | 43.7 | 145.70 ± 1.9 | 61.3 ± 1.5 | 62.1 ± 3.1 | 0.93 | TNF-α % inhibition HCT116 [11]: 12.0%; TNF-α pg/mL (± SEM) HCT116 [11]: 84.26 ± 0.8 pg/mL; TNF-α % inhibition PaCa2 [12]: 17.9%; TNF-α pg/mL (± SEM) PaCa2 [12]: 91.8 ± 2.7 pg/mL; TNF-α % inhibition MCF7 [13]: 3.1%; TNF-α pg/mL (± SEM) MCF7 [13]: 80.67 ± 2.8 pg/mL
3 | CCOP(=O)(OCC)N1C/C(=C\c2cccs2)C(=O)C2(C1)C(c1cccs1)CN(C)C21C(=O)Nc2ccc(F)cc21 (stereo not drawn) [Compound 17r, Diethyl (E)-(5-fluoro-1′-methyl-2,4′′-dioxo-4′-(thiophen-2-yl)-5′′-(thiophen-2-ylmethylene)dispiro[indoline-3,2′-pyrrolidine-3′,3′′-piperidin]-1′′-yl)phosphonate] | 7.67 ± 0.379 | 7.67 | 2.2 | 0.1206 | 8.29 ± 0.497 | 2.1 | 6.22 ± 0.082 | 2.7 | 14.18 ± 0.135 | 1.2 | 17 ± 0.557 | 78.8 | 67.34 ± 0.4 | 79.6 | 66.53 ± 0.8 | 67.4 | 84.30 ± 1.0 | 55.5 ± 2.6 | 51.8 ± 2 | 1.09 | TNF-α pg/mL (± SEM) HCT116 [11]: 27.45 ± 1.4 pg/mL; TNF-α % inhibition PaCa2 [12]: 75.4%; TNF-α pg/mL (± SEM) PaCa2 [12]: 27.5 ± 0.5 pg/mL; TNF-α % inhibition MCF7 [13]: 69.4%; TNF-α pg/mL (± SEM) MCF7 [13]: 25.46 ± 0.9 pg/mL
